Like-named read-outs stand apart in the source and are kept apart here.
What was measured:
[1] = tested on: scopolamine-induced amnesic mice; assay: Y-Maze Paradigm, spontaneous alternation in scopolamine-induced amnesic model; format: in vivo, Balb/C mice; conditions: for Spontaneous Alternation Performance: scopolamine 1 mg/kg i.p., n = 8
Excerpt: (§1) For assessment of acute toxicity of the flavones (F1–F5), animals (21 in number) were divided into groups of 3 animals each. The reported protocols by Lorke were followed with slight modification to perform tests in two phases. In the first phase, one (control) group of animals were given Tween-80 (2%), and oral doses of F1–F5 were given to the remaining groups, respectively, at various doses (mg/kg body weight). […] The animals were housed in plastic cages. After two weeks, the animals were sacrificed by euthanasia with isoflurane in a humane manner for assessment of the effects on total weight and weight of the vital organs. The biochemical parameters of blood and histological studies of vital organs (kidney and liver tissue) were also assessed. […] The preliminary pharmacological activity was assessed at various dose concentrations of F1–F5 (2.5–20 mg/kg b.w.) to determine the effective dose for assessment of cognitive function using animal models.
(§2) The animals in the control (normal) and scopolamine amnesic groups were administered vehicle (Tween-80, 2%) only. Treated animals received F1–F5 suspended in Tween-80 (2%) p.o. at their respective doses for a period of 4 weeks. […] For assessing behavioral effects using the Y-Maze Paradigm and novel object discrimination (NOD) task, scopolamine (1 mg/kg, i.p.) was given to the different groups, 30 min after the respective treatments, to induce memory impairment (amnesia) in mice. All of the tests were performed between 8:00 a.m. and 6:00 p.m. to avoid sham results in the performance of the animals.
(§3) Behavioral tasks on the Y-Maze Paradigm and “NOD” tasks were conducted in the 5th week of study to determine learning and memory functions. The apparatus arena was cleaned with 70% ethanol during the inter-trial interval to prevent a confounding error due to the influence of odor [20, 21].
The Y-Maze task is a non-invasive and reliable behavioral test that was used for memory assessment of spontaneous alternation for F1–F5 based on previously reported protocols. A single session of Y-Maze was used to record the spontaneous alternation behavior of the animals to determine exploratory behavior and instant memory functioning. The apparatus was made of three arms in a “Y” shape (35 cm × 8 cm × 15 cm) with an equilateral triangular central area. In brief, each of the mice, previously naive to the maze, was placed at the terminal end of one arm. The animals were allowed to move and explore freely for 8 min through the maze. The number of arm entries was noted. One arm entry was considered when the hind paws of the animal were completely placed inside the arm, and the series of arm entries were documented. The spontaneous alternation in percent was calculated.

[2] = tested on: brains of scopolamine-induced amnesic mice; assay: Antioxidant enzyme activities and oxidative stress markers in brain homogenate; format: in vivo, Balb/C mice; conditions: for GSH / MDA: n = 8
Protocol: as §2
(§4) The brain was extracted, and a homogenate (10% w/v) in 0.1 M of phosphate buffer (pH 7.4) was prepared by centrifugation for the assessment of brain oxidative status and estimating brain acetylcholinesterase activity. Catalase (CAT), superoxide dismutase (SOD), glutathione (GSH) and level of lipid peroxidation (malondialdehyde, MDA) were quantified as oxidative stress markers.

[3] = target: T1, BuChE (equine serum lyophilized) (Equus caballus, UniProt P81908); assay: biochemical; conditions: triplicate; read-out: BChE IC50 (converted)
T1 construct: purchased Sigma-Aldrich (Taufkirchen, Germany); host or cells: equine serum
Protocol: (§5) Synthetic flavonoids F1–F5 previously synthesized by our group were used in the study.
(§6) For the determination of acetylcholinesterase inhibitory potentials, AChE and BuChE were used. […] To the tube were added DTNB (100 µL) and buffer (2.4 mL). The tube was incubated at 25 °C for 5 min as pre-incubation. The reaction was started by adding ATChI (40 µL), and the mixture was incubated at 25 °C for 20 min. The absorbance at 412 nm was measured spectrophotometrically in triplicate. […] The data were recorded in triplicate, and IC50 was calculated.

[4] = target: T2, AChE (electric eel type-VI-S) (Electrophorus electricus, UniProt O42275); assay: biochemical; conditions: 25 °C, triplicate
T2 construct: purchased Sigma-Aldrich (Taufkirchen, Germany)
Protocol: as §5, §6

Balb/C mice = assay: Acute toxicity study; format: in vivo; conditions: n = 3; for ALP / AST / Creatinine / Glucose / Total Cholesterol / Triglyceride: blood; for Kidney Weight / Liver Weight / Total Weight: mice
Excerpt: Two weeks before the experiment, the animals were acclimatized to laboratory conditions.
as §1

[5] = target: T3, brain acetylcholinesterase (Mus musculus, UniProt P21836); format: in vivo; design: unit not given here; conditions: brain homogenate, n = 8
T3 construct: The brain was extracted, and a homogenate (10% w/v) in 0.1 M of phosphate buffer (pH 7.4) was prepared; from tissue; host or cells: mouse brain homogenate
Protocol: as §2, §4

[6] = tested on: scopolamine-induced amnesic mice; assay: Novel object discrimination (NOD) task in scopolamine-induced amnesic model; format: in vivo, Balb/C mice; conditions: scopolamine 1 mg/kg i.p., n = 8
Protocol: as §2, §3
Animals were challenged for the novel object discrimination task for F1–F5 as per previously reported protocols. After habituation and acclimatization, animals in each group had two consecutive object exploration trials (5 min each) for this test, with a break of 4 h in between two trials. In the familiarization phase (sample), the animals were challenged to explore two objects similar to each other. In the second phase (test), any of the two objects was changed by a new object. Exploration time in sec for the objects, including chewing, licking, sniffing or pointing the vibrissae of nose towards the object, was recorded. The discrimination ratio (%DI) was then determined using:(T novel object − T familiar object)/(T novel object + T familiar object) × 100(1)

[7] = 7.5 mg/kg b.w., n = 8, 7.5 mg/kg

T3 sequence (P21836 32-614): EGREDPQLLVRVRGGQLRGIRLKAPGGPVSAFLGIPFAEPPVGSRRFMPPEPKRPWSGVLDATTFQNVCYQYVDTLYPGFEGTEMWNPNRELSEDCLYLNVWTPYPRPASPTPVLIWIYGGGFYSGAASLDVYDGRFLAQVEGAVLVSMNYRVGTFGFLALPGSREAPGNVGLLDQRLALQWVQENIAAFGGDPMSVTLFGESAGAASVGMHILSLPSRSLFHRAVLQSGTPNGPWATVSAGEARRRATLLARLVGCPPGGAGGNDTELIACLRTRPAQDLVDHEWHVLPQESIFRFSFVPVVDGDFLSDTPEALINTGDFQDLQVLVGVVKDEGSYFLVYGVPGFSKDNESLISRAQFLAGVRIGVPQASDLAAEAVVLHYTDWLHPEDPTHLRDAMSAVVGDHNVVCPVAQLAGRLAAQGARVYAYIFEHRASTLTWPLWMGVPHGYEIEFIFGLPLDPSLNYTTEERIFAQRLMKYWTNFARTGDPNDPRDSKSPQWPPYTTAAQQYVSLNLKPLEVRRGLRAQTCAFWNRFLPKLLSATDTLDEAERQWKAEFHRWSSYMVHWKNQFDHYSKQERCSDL
T1 sequence (P81908 whole entry): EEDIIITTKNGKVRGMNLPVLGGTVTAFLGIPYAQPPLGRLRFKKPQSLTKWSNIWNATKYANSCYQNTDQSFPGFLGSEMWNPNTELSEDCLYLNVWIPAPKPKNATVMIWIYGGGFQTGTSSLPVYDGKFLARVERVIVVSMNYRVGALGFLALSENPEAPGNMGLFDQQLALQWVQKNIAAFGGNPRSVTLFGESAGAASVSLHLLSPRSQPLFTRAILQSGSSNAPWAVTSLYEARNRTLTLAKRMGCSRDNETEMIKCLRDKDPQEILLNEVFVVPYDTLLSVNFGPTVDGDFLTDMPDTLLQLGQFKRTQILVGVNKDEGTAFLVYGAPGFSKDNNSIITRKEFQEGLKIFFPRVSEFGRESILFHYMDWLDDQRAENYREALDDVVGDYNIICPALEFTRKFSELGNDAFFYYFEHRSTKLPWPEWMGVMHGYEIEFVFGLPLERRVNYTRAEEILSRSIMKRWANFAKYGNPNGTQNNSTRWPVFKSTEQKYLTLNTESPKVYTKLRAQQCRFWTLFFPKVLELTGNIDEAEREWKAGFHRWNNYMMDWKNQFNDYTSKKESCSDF
T2 sequence (O42275 24-633): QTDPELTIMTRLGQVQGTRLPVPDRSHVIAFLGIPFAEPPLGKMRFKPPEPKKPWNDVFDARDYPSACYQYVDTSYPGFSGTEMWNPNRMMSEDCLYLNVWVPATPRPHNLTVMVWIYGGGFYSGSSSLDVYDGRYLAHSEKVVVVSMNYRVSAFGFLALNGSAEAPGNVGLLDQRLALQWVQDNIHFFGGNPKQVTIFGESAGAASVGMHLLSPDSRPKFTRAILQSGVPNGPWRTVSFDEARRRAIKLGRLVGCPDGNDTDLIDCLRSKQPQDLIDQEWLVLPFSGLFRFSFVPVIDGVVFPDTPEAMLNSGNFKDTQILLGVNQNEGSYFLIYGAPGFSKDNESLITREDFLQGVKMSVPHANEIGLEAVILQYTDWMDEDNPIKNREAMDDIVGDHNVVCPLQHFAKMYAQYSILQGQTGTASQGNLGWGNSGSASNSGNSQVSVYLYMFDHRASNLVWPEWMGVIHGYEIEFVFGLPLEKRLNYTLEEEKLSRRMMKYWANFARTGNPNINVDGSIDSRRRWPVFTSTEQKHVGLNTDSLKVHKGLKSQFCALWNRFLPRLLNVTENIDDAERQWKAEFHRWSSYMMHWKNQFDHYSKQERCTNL

O=c1cc(-c2ccc(Cl)cc2)oc2ccccc12 [Compound F1]
Spontaneous Alternation Performance ([1]; 7.5 mg/kg b.w. p.o. 4 weeks): 49.90 ± 1.33% | Spontaneous Alternation Performance ([1]; 15 mg/kg b.w. p.o. 4 weeks): 51.78 ± 1.45% | Spontaneous alternation performance (preliminary, selection of doses) ([1]; Table S1, dose 2.5 mg/kg b.w.): 37.02±2.11 | Spontaneous alternation performance (preliminary, selection of doses) ([1]; Table S1, dose 5 mg/kg b.w.): 38.91±1.67 | Spontaneous alternation performance (preliminary, selection of doses) ([1]; Table S1, dose 7.5 mg/kg b.w.): 49.12±1.45 | Spontaneous alternation performance (preliminary, selection of doses) ([1]; Table S1, dose 10 mg/kg b.w.): 48.66±1.98 | Spontaneous alternation performance (preliminary, selection of doses) ([1]; Table S1, dose 12.5 mg/kg b.w.): 48.98±2.01 | Spontaneous alternation performance (preliminary, selection of doses) ([1]; Table S1, dose 15 mg/kg b.w.): 51.72±1.88 | Spontaneous alternation performance (preliminary, selection of doses) ([1]; Table S1, dose 20 mg/kg b.w.): 52.03±2.03 | GSH ([2]; 7.5 mg/kg b.w.): 34.62 ± 1.50 μg/mg of Protein | MDA ([2]; 7.5 mg/kg b.w.): 16.39 ± 1.28 nmol/mg Protein | CAT [2, 7]: 21.93 ± 1.37 U/mg of Protein | SOD [2, 7]: 8.97 ± 1.12 U/mg of Protein | GSH ([2]; 15 mg/kg b.w.): 35.70 ± 1.47 μg/mg of Protein | MDA ([2]; 15 mg/kg b.w.): 16.12 ± 1.47 nmol/mg Protein | CAT ([2]; 15 mg/kg b.w., n = 8, 15 mg/kg): 22.31 ± 1.22 U/mg of Protein | SOD ([2]; 15 mg/kg b.w., n = 8, 15 mg/kg): 9.12 ± 1.28 U/mg of Protein | IC50 [3]: 603 µM | IC50 [4]: 644 µM | ALP (Balb/C mice; 600 mg/kg b.w. oral): 132.54 ± 2.78 U/L | AST (Balb/C mice; 600 mg/kg b.w. oral): 107.89 ± 2.01 U/L | Creatinine (Balb/C mice; 600 mg/kg b.w. oral): 0.36 ± 0.05 mg/dL | Glucose (Balb/C mice; 600 mg/kg b.w. oral): 85.51 ± 2.33 mg/dL | Total Cholesterol (Balb/C mice; 600 mg/kg b.w. oral): 103.19 ± 2.06 mg/dL | Triglyceride (Balb/C mice; 600 mg/kg b.w. oral): 95.20 ± 2.76 mg/dL | Kidney Weight (Balb/C mice; 600 mg/kg b.w. oral): 0.29 ± 0.19 g | Liver Weight (Balb/C mice; 600 mg/kg b.w. oral): 1.24 ± 0.21 g | Total Weight (Balb/C mice; 600 mg/kg b.w. oral): 21.82 ± 1.39 g | ALP (Balb/C mice; 1000 mg/kg b.w. oral): 136.33 ± 2.39 U/L | AST (Balb/C mice; 1000 mg/kg b.w. oral): 108.34 ± 2.66 U/L | Creatinine (Balb/C mice; 1000 mg/kg b.w. oral): 0.38 ± 0.06 mg/dL | Glucose (Balb/C mice; 1000 mg/kg b.w. oral): 86.98 ± 2.09 mg/dL | Total Cholesterol (Balb/C mice; 1000 mg/kg b.w. oral): 102.76 ± 1.87 mg/dL | Triglyceride (Balb/C mice; 1000 mg/kg b.w. oral): 94.78 ± 1.98 mg/dL | Kidney Weight (Balb/C mice; 1000 mg/kg b.w. oral): 0.29 ± 0.18 g | Liver Weight (Balb/C mice; 1000 mg/kg b.w. oral): 1.23 ± 0.26 g | Total Weight (Balb/C mice; 1000 mg/kg b.w. oral): 22.93 ± 1.91 g | ALP (Balb/C mice; 2000 mg/kg b.w. oral): 135.29 ± 4.17 U/L | AST (Balb/C mice; 2000 mg/kg b.w. oral): 109.73 ± 1.98 U/L | Creatinine (Balb/C mice; 2000 mg/kg b.w. oral): 0.34 ± 0.04 mg/dL | Glucose (Balb/C mice; 2000 mg/kg b.w. oral): 86.45 ± 2.27 mg/dL | Total Cholesterol (Balb/C mice; 2000 mg/kg b.w. oral): 102.05 ± 2.01 mg/dL | Triglyceride (Balb/C mice; 2000 mg/kg b.w. oral): 96.22 ± 1.70 mg/dL | Kidney Weight (Balb/C mice; 2000 mg/kg b.w. oral): 0.30 ± 0.20 g | Liver Weight (Balb/C mice; 2000 mg/kg b.w. oral): 1.23 ± 0.24 g | Total Weight (Balb/C mice; 2000 mg/kg b.w. oral): 21.79 ± 1.72 g | ALP (Balb/C mice; 3000 mg/kg b.w. oral): 136.09 ± 3.12 U/L | AST (Balb/C mice; 3000 mg/kg b.w. oral): 109.90 ± 2.09 U/L | Creatinine (Balb/C mice; 3000 mg/kg b.w. oral): 0.29 ± 0.03 mg/dL | Glucose (Balb/C mice; 3000 mg/kg b.w. oral): 85.72 ± 1.97 mg/dL | Total Cholesterol (Balb/C mice; 3000 mg/kg b.w. oral): 101.28 ± 1.98 mg/dL | Triglyceride (Balb/C mice; 3000 mg/kg b.w. oral): 97.41 ± 1.83 mg/dL | Kidney Weight (Balb/C mice; 3000 mg/kg b.w. oral): 0.31 ± 0.27 g | Liver Weight (Balb/C mice; 3000 mg/kg b.w. oral): 1.25 ± 0.29 g | Total Weight (Balb/C mice; 3000 mg/kg b.w. oral): 22.71 ± 1.79 g | level of AChE ([5]; 7.5 mg/kg b.w.): 21.31 ± 0.53 | level of AChE ([5]; 15 mg/kg b.w.): 21.01 ± 0.61 | discrimination index (%DI) ([6]; 7.5 mg/kg b.w. p.o. 4 weeks): 48.67 ± 1.57% | discrimination index (%DI) ([6]; 15 mg/kg b.w. p.o. 4 weeks): 51.11 ± 1.48%
